In ChEMBL document CHEMBL1128657, “Synthesis and in vitro biological evaluation of new triphenylethylene platinum (II) complexes” (Bioorg Med Chem Lett, 1995) one finds IC50 data, which are given here for 3 molecules.

pIC50: −log10 of the molar value.

Experiment [1] concerns MCF7. The experiment can be described thus: In vitro inhibition of estrogen receptor positive MCF-7 human mammary carcinoma cell proliferation. The class given is functional, cell-based.
Experiment [2] relates to MDA-MB-231. Description: In vitro inhibition of estrogen receptor negative […] human mammary carcinoma cell proliferation. The class given is functional, cell-based.

The pIC50 is the negative decadic logarithm of the IC50, by convention in mol/L. `COc1ccc(C(=C(CCCCCCCCCCCNCCN)c2ccccc2)c2ccc(OC)cc2)cc1`: the pIC50 was 4.85 in experiment [1] (Homo sapiens, MCF7) and 5.64 in experiment [2] (Homo sapiens, MDA-MB-231).

In the case of `CC/C(=C(\c1ccccc1)c1ccc(OCCN(C)C)cc1)c1ccccc1` [TAMOXIFEN], the pIC50 is 4.77 in experiment [1] (Homo sapiens, MCF7) and 4.55 in experiment [2] (Homo sapiens, MDA-MB-231).

Turning to CISPLATIN, the results for the pIC50 in experiment [1] (mcf7) and in experiment [2] (mda-mb-231) were 5.52 and 5.47, respectively.
